# Reference: patent US8101649B2, “N-acylhydrazone derivatives useful as modulators of nicotinic acetylcholine receptors” (Neurosearch A/S, priority 2007, dated 2012)
# What was measured:
# [1] = target: T1, wild-type nAChR α7 receptors (Homo sapiens, UniProt P36544); experiment: Positive modulation of acetylcholine-induced currents at nAChR α7 receptors expressed in Xenopus laevis oocytes (two-electrode voltage clamp); assay type: cell-based
# T1 construct: expressed in transfected cells; host or cells: Xenopus laevis oocytes
# Experimental: In this example the positive modulation of wild-type nAChR α7 receptors by Compound 3 (FIGS. 1A and 1B) was determined using nAChR α7 receptors heterologously expressed in Xenopus laevis oocytes.
# The electrical current through the nAChR α7 channel was measured using conventional two-electrode voltage clamp and nAChR α7 currents were activated by applying pulses of agonist-containing solution onto the nAChR α7 expressing oocyte.
# In brief, the oocytes were placed in a recording chambers and continuously superfused with an Oocyte Ringer (OR) solution containing 90 mM NaCl, 2.5 mM KCl, 2.5 mM CaCl2, 1 mM MgCl2 and 5 mM HEPES (pH adjusted to 7.4). The oocytes were clamped at −60 mV and currents were induced by applying 20 s pulses of 100 μM acetylcholine dissolved in OR. The intervals between the acetylcholine applications were 5 minutes, during which the oocytes were washed with OR. The first three applications were control applications to insure a constant response level of 100 μM acetylcholine.
# The positive modulation in the presence of Compound 3 was calculated as (test-control)/control*100% and the concentration response curve for this positive modulation was fitted to the sigmoidal logistic equation: I=Imax/(1+(EC50/[compound])^n), where Imax represents the maximal modulation of the control response, EC50 is the concentration causing a half maximal response, and n is the slope coefficient.
# T1 sequence (P36544 23-502): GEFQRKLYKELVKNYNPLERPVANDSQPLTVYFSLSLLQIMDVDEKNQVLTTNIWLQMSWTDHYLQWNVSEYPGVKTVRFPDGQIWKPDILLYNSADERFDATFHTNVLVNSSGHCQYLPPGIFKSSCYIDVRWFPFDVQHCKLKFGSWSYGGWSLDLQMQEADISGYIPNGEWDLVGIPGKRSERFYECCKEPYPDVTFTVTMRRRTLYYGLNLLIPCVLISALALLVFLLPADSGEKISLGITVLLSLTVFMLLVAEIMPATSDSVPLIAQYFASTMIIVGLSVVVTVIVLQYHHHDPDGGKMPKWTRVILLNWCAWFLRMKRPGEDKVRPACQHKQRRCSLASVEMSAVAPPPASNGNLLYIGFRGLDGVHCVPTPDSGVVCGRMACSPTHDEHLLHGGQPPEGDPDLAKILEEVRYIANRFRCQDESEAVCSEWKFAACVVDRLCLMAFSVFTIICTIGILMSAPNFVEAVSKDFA
Compound,melting point [°C],further results
"CC1=C/C(=N/NC(=O)CCc2c[nH]c3ccccc23)c2ccccc2C1=O [Compound 3N, 3-(1H-Indol-3-yl)-propionic acid [3-methyl-4-oxo-4H-naphthalen-(1Z)-ylidene]-hydrazide]",248.6 to 249.5,–
"O=C(CCc1c[nH]c2ccc(F)cc12)N/N=C/c1ccccc1F [Compound 3J, 3-(5-Fluoro-1H-indol-3-yl)-propionic acid [1-(2-fluoro-phenyl)-meth-(E)-ylidene]-hydrazide]",132.8 to 134,–
"O=C(CCc1c[nH]c2ccccc12)N/N=C/c1ccc(F)cc1 [Compound 3, 3-(1H-Indol-3-yl)-propionic acid [1-(4-fluoro-phenyl)-meth-(E)-ylidene]-hydrazide]",–,"Imax (maximal modulation of the acetylcholine control response) ([1]; 100 μM acetylcholine, (test-control)/control*100%, fitted to the sigmoidal logistic equation): 140%; EC50 ([1]; 100 μM acetylcholine, oocytes clamped at −60 mV, 0.01-31.6 μM compound applied 30 s before and during acetylcholine, read-out: EC50 (concentration causing a half maximal response) for positive modulation of acetylcholine responses): 4.1 µM; effect on acetylcholine-induced current amplitude ([1]; 0.01-31.6 μM compound with 100 μM acetylcholine): robust increase"
"C/C(=N\NC(=O)CCc1c[nH]c2ccccc12)c1ccccc1 [Compound 3K, 3-(1H-Indol-3-yl)-propionic acid [1-phenyl-eth-(E)-ylidene]-hydrazide]",156.2 to 158.2,–
"O=C(CCc1c[nH]c2ccc(F)cc12)N/N=C/c1ccc(F)cc1 [Compound 3M, 3-(5-Fluoro-1H-indol-3-yl)-propionic acid [1-(4-fluoro-phenyl)-meth-(E)-ylidene]-hydrazide]",213.8 to 215.3,–
"O=C(CCc1c[nH]c2ccc(F)cc12)N/N=C/c1ccccc1 [Compound 3I, 3-(5-Fluoro-1H-indol-3-yl)-propionic acid [1-phenyl-meth-(E)-ylidene]-hydrazide]",171.2 to 173.9,–
"O=C(CCc1c[nH]c2ccccc12)N/N=C1\CCCc2ccccc21 [Compound 3L, 3-(1H-Indol-3-yl)-propionic acid [3,4-dihydro-2H-naphthalen-(1E)-ylidene]-hydrazide]",119.3 to 120.2,–
"O=C(CCc1c[nH]c2ccccc12)N/N=C/c1ccccc1F [Compound 3E, 3-(1H-Indol-3-yl)-propionic acid [1-(2-fluoro-phenyl)-meth-(E)-ylidene]-hydrazide]",118 to 123,–

# Now from value to compound, other results behind:
melting point [°C],Compound,further results
201.5 to 202.5,"O=C(CCc1c[nH]c2ccccc12)N/N=C/c1ccc(Cl)cc1 [Compound 3G, 3-(1H-Indol-3-yl)-propionic acid [1-(4-chloro-phenyl)-meth-(E)-ylidene]-hydrazide]",–
145.5 to 148.1,"O=C(CCc1c[nH]c2ccccc12)N/N=C/c1ccsc1 [Compound 3D, 3-(1H-Indol-3-yl)-propionic acid [1-thiophen-3-yl-meth-(E)-ylidene]-hydrazide]",–
169.8 to 171.2,"O=C(CCc1c[nH]c2ccccc12)N/N=C/c1ccccc1 [Compound 3A, 3-(1H-Indol-3-yl)-propionic acid [1-phenyl-meth-(E)-ylidene]-hydrazide]",–
168.3 to 169.7,"COc1ccc(/C=N/NC(=O)CCc2c[nH]c3ccccc23)cc1 [Compound 3B, 3-(1H-Indol-3-yl)-propionic acid [1-(4-methoxy-phenyl)-meth-(E)-ylidene]-hydrazide]",–
146.5 to 149.4,"O=C(CCc1c[nH]c2ccccc12)N/N=C/c1cccs1 [Compound 3F, 3-(1H-Indol-3-yl)-propionic acid [1-thiophen-2-yl-meth-(E)-ylidene]-hydrazide]",–
